Test results: patent US20260356804A1, “SODIUM CHANNEL BLOCKING COMPOUNDS, DERIVATIVES THEREOF, AND METHODS OF THEIR USE” (LATIGO BIOTHERAPEUTICS, INC., priority 2022, published 2026)
Read-outs that look alike come from different tables or passages of the source.

Biological target: T1, human Nav1.8/b3 (Homo sapiens, UniProt Q9Y5Y9)
T1 construct: expressed in transfected cells; host or cells: CHO
Assay: Compound Profiling Human NaV1.8/β3 Cell Line—SyncroPatch384PE Assay (automated patch clamp, stably transfected CHO cells)
Type: cell-based
Settings: Nav1.8/b3 CHO cells

[1] = P1 (IC50, resting state block), P1 measurement, resting state block, holding potential −120 mV, third set of compounds
[2] = P2 (IC50, inactivated state block), P2 measurement, inactivated state block, inactivation step −35 mV 10 sec, third set of compounds
[3] = P1 (IC50, resting state block), P1 measurement, resting state block, holding potential −120 mV, first set of compounds
[4] = P2 (IC50, inactivated state block), P2 measurement, inactivated state block, inactivation step −35 mV 10 sec, first set of compounds
[5] = P1 (IC50, resting state block), P1 measurement, resting state block, holding potential −120 mV, second set of compounds
[6] = P2 (IC50, inactivated state block), P2 measurement, inactivated state block, inactivation step −35 mV 10 sec, second set of compounds
[7] = P1 (IC50, resting state block), P1 measurement, resting state block, holding potential −120 mV, fourth set of compounds
[8] = P2 (IC50, inactivated state block), P2 measurement, inactivated state block, inactivation step −35 mV 10 sec, fourth set of compounds

T1 sequence (Q9Y5Y9 whole entry): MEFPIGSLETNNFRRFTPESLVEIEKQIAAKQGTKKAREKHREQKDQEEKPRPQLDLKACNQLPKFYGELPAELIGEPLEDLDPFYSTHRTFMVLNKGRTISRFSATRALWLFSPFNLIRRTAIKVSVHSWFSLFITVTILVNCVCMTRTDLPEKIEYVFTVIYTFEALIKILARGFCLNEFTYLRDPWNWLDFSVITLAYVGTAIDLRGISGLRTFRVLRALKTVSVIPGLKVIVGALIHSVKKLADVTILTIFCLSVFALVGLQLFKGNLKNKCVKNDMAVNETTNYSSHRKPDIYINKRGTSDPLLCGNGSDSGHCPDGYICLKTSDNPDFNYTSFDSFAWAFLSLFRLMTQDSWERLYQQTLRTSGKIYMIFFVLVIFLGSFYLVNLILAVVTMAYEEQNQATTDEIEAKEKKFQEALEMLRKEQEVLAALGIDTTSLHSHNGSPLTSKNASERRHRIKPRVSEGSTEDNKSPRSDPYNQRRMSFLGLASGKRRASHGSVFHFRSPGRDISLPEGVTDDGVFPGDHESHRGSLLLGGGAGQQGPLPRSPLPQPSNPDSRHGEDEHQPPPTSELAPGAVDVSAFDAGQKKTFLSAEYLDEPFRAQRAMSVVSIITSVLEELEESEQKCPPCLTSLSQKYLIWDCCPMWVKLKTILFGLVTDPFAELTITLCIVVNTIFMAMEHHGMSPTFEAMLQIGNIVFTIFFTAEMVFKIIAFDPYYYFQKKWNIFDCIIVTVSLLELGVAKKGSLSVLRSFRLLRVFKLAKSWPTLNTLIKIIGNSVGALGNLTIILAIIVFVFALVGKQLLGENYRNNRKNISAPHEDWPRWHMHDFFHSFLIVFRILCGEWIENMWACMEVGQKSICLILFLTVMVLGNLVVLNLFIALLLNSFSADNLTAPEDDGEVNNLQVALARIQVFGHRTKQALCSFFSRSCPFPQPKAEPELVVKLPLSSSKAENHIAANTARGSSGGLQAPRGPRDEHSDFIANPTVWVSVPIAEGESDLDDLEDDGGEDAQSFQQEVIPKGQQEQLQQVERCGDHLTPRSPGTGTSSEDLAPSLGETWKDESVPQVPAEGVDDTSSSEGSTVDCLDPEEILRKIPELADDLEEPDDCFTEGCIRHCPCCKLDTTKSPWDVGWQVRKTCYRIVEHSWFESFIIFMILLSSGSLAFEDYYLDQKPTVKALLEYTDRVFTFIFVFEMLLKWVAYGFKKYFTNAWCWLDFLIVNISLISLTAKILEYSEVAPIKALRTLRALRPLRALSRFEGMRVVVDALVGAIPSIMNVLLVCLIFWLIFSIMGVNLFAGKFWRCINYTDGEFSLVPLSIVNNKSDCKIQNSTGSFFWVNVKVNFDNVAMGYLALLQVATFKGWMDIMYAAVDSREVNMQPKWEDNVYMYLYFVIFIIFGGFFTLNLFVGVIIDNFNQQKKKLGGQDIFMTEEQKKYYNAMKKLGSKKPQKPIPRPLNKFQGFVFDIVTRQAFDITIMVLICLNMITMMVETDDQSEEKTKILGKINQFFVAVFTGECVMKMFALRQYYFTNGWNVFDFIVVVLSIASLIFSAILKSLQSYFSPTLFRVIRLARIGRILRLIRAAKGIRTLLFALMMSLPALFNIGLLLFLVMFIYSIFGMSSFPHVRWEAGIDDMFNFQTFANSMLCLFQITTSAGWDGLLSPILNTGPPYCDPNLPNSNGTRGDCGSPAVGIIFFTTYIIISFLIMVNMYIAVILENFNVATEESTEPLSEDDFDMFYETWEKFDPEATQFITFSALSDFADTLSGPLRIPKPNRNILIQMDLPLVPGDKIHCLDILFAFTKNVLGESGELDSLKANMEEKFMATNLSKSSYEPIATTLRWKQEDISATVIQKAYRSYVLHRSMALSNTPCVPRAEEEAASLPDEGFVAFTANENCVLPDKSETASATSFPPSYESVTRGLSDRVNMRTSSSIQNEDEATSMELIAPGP
T1 sequence (Q9NY72 23-215 partner): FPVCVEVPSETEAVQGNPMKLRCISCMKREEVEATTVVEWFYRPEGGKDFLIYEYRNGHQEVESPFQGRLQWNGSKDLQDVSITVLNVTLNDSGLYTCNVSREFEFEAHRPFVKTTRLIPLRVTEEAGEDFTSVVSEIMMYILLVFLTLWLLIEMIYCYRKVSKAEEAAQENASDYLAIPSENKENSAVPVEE

## Cc1cc(C#N)ccc1Oc1cc(C(F)(F)F)nnc1C(=O)Nc1cccc(S(C)(=O)=O)c1 [Example 29C, 4-(4-cyano-2-methylphenoxy)-N-(3-(methylsulfonyl)phenyl)-6-(trifluoromethyl)pyridazine-3-carboxamide]
[1]
  IC50: > 200 nM
[2]
  IC50: > 200 nM

## Cc1nc(F)ccc1Oc1cc(C(F)(F)F)c(Cl)cc1C(=O)Nc1ccc([S@@](C)(=N)=O)cc1 [Example 48A]
[3]
  IC50: 50 to 100 nM
[4]
  IC50: 50 to 100 nM

## Cc1nc(F)ccc1Oc1ccc(C(F)(F)F)c(C)c1C(=O)Nc1cccc([S@@](C)(=O)=NC(=O)[C@@H](C)O)c1 [Example 28B]
[5]
  IC50: < 5 nM
[6]
  IC50: < 5 nM

## Cc1nc(F)ccc1Oc1ncc(C(F)(F)F)c(C)c1C(=O)NC12CC(C(N)=O)(C1)C2 [Example 112C]
[1]
  IC50: > 200 nM
[2]
  IC50: > 200 nM

## Cc1nc(F)ccc1Oc1nc(C(F)(F)F)c(C#N)c(C)c1C(=O)Nc1cccc([S@](C)(=N)=O)c1 [Example 113C]
[1]
  IC50: 5 to 50 nM
[2]
  IC50: 5 to 50 nM

## Cc1nc(F)ccc1Oc1nnc(C(F)(F)F)c(C)c1C(=O)Nc1cccc([S@@](C)(=O)=NC(=O)CO)c1 [Example 20D, (R)-3-((6-fluoro-2-methylpyridin-3-yl)oxy)-N-(3-(N-(2-hydroxyacetyl)-S-methylsulfonimidoyl)phenyl)-5-methyl-6-(trifluoromethyl)pyridazine-4-carboxamide]
[7]
  IC50: 5 to 50 nM
[8]
  IC50: 5 to 50 nM

## Cc1nc(F)ccc1Oc1cnc(C(F)(F)F)c(C)c1C(=O)Nc1cccc([S@](C)(=N)=O)c1 [Example 44C, (R)-5-((6-fluoro-2-methylpyridin-3-yl)oxy)-3-methyl-N-(3-(S-methylsulfonimidoyl)phenyl)-2-(trifluoromethyl)isonicotinamide]
P1 measurement, resting state block, holding potential −120 mV, third set of compounds, read-out: P1 (IC50, resting state block)
  IC50: 5 to 50 nM
P2 measurement, inactivated state block, inactivation step −35 mV 10 sec, third set of compounds, read-out: P2 (IC50, inactivated state block)
  IC50: 5 to 50 nM

## Cc1nc(F)ccc1Oc1ccc(-c2cnn(C)c2)c(C)c1C(=O)Nc1cccc([S@](C)(=N)=O)c1 [Example 7A, (R)-6-((6-fluoro-2-methylpyridin-3-yl)oxy)-2-methyl-3-(1-methyl-1H-pyrazol-4-yl)-N-(3-(S-methylsulfonimidoyl)phenyl)benzamide]
[3]
  IC50: > 200 nM
[4]
  IC50: > 200 nM

## Cc1nc(F)ccc1Oc1ccc(C(F)(F)F)c(F)c1C(=O)Nc1cccc([S@@](C)(=O)=NC(=O)[C@H](C)O)c1 [Example 18B, 2-fluoro-6-((6-fluoro-2-methylpyridin-3-yl)oxy)-N-(3-((R)—N—((S)-2-hydroxypropanoyl)-S-methylsulfonimidoyl)phenyl)-3-(trifluoromethyl)benzamide]
[5]
  IC50: < 5 nM
[6]
  IC50: < 5 nM

## CNCC(=O)N=[S@](C)(=O)c1cccc(NC(=O)c2c(Oc3ccc(F)nc3C)nnc(C(F)(F)F)c2C)c1 [Example 25D, (R)-3-((6-fluoro-2-methylpyridin-3-yl)oxy)-5-methyl-N-(3-(S-methyl-N-(methylglycyl)sulfonimidoyl)phenyl)-6-(trifluoromethyl)pyridazine-4-carboxamide]
[7]
  IC50: < 5 nM
[8]
  IC50: < 5 nM

## Cc1nc(F)ccc1Oc1ccc(C(F)(F)F)c(C)c1C(=O)Nc1cccc([S@@](C)(=O)=NC(=O)[C@@H]2CCCN2)c1 [Example 22B]
[5]
  IC50: < 5 nM
[6]
  IC50: < 5 nM

## Cc1nc(F)ccc1Oc1ncc(-c2ccc(F)c(F)c2)c(C)c1C(=O)Nc1cccc([S@](C)(=N)=O)c1 [Example 6C, (R)-5-(3,4-difluorophenyl)-2-((6-fluoro-2-methylpyridin-3-yl)oxy)-4-methyl-N-(3-(S-methylsulfonimidoyl)phenyl)nicotinamide]
[1]
  IC50: < 5 nM
[2]
  IC50: < 5 nM

## Cc1nc(F)ccc1Oc1cc(C2CC2)c(C(F)(F)F)cc1C(=O)Nc1cccc([S@](C)(=N)=O)c1 [Example 67A]
[3]
  IC50: < 5 nM
[4]
  IC50: < 5 nM

## Cc1nc(F)ccc1Oc1cnc(C(F)(F)F)c(F)c1C(=O)Nc1cccc([S@](C)(=N)=O)c1 [Example 110C]
[1]
  IC50: 5 to 50 nM
[2]
  IC50: 5 to 50 nM

## Cc1nc(F)ccc1Oc1cc(C(F)(F)F)c(Cl)c(F)c1C(=O)Nc1ccnc([S@](C)(=N)=O)c1 [Example 41A]
[3]
  IC50: < 5 nM
[4]
  IC50: < 5 nM

## Cc1nc(F)ccc1Oc1nc(C(F)(F)F)c(Cl)c(C)c1C(=O)Nc1ccc(F)c([S@](C)(=N)=O)c1 [Example 95C]
[1]
  IC50: < 5 nM
[2]
  IC50: < 5 nM

## C[S@@](=N)(=O)c1cc(NC(=O)c2cc(Cl)c(C(F)(F)F)cc2OCC(F)(F)F)ccn1 [Example 35A]
P1 measurement, resting state block, holding potential −120 mV, first set of compounds, read-out: P1 (IC50, resting state block)
  IC50: 50 to 100 nM
P2 measurement, inactivated state block, inactivation step −35 mV 10 sec, first set of compounds, read-out: P2 (IC50, inactivated state block)
  IC50: 50 to 100 nM

## Cc1cc(C#N)ccc1Oc1cc(C(F)(F)F)nnc1C(=O)Nc1cccc(S(C)(=N)=O)c1 (stereo not shown) [Example 39C, 4-(4-cyano-2-methylphenoxy)-N-(3-(S-methylsulfonimidoyl)phenyl)-6-(trifluoromethyl)pyridazine-3-carboxamide]
[1]
  IC50: > 200 nM
[2]
  IC50: > 200 nM

## Cc1nc(F)ccc1Oc1cc(C(F)(F)F)ccc1C(=O)Nc1cccc([S@@](C)(=O)=NC(=O)[C@@H](C)O)c1 [Example 13B, 2-((6-fluoro-2-methylpyridin-3-yl)oxy)-N-(3-((R)—N—((R)-2-hydroxypropanoyl)-S-methylsulfonimidoyl)phenyl)-4-(trifluoromethyl)benzamide]
[5]
  IC50: 5 to 50 nM
[6]
  IC50: 5 to 50 nM

## COc1cc(C#N)ccc1Oc1ncc(Cl)c(C)c1C(=O)Nc1cccc(S(C)(=N)=O)c1 (stereo not shown) [Example 25C, 5-chloro-2-(4-cyano-2-methoxyphenoxy)-4-methyl-N-(3-(S-methylsulfonimidoyl)phenyl)nicotinamide]
[1]
  IC50: < 5 nM
[2]
  IC50: < 5 nM

## Cc1nc(F)ccc1Oc1ccc(C(F)(F)F)c(C)c1C(=O)Nc1cccc([S@@](C)(=O)=NC(=O)CO)c1 [Example 27B]
[5]
  IC50: < 5 nM
[6]
  IC50: < 5 nM

## Cc1nc(F)ccc1Oc1ncc(-c2ccc(C(F)F)cc2)c(C)c1C(=O)Nc1cccc([S@](C)(=N)=O)c1 [Example 2C, (R)-5-(4-(difluoromethyl)phenyl)-2-((6-fluoro-2-methylpyridin-3-yl)oxy)-4-methyl-N-(3-(S-methylsulfonimidoyl)phenyl)nicotinamide]
[1]
  IC50: 5 to 50 nM
[2]
  IC50: 5 to 50 nM

## Cc1nc(F)ccc1Oc1ncc(C(F)(F)F)c(C)c1C(=O)Nc1cccc(C(N)=O)c1 [Example 119C]
[1]
  IC50: < 5 nM
[2]
  IC50: < 5 nM

## Cc1nc(F)ccc1Oc1ccc(C(F)(F)F)c(C)c1C(=O)Nc1cccc([S@@](C)(=O)=NC(=O)[C@@H](C)N)c1 [Example 24B]
[5]
  IC50: < 5 nM
[6]
  IC50: < 5 nM

## Cc1nc(F)ccc1Oc1ncc(C(F)(F)F)c(C)c1C(=O)Nc1cccc([S@@](C)(=O)=NC(=O)CN2CC(F)(F)C2)c1 [Example 29D, (R)—N-(3-(N-(2-(3,3-difluoroazetidin-1-yl)acetyl)-S-methylsulfonimidoyl)phenyl)-2-((6-fluoro-2-methylpyridin-3-yl)oxy)-4-methyl-5-(trifluoromethyl)nicotinamide]
[7]
  IC50: < 5 nM
[8]
  IC50: < 5 nM

## Cc1nc(F)ccc1Oc1cc(C(F)(F)F)c(Cl)cc1C(=O)Nc1cccc([S@@](C)(=O)=NC(=O)[C@H](C)O)c1 [Example 3B, 5-chloro-2-((6-fluoro-2-methylpyridin-3-yl)oxy)-N-(3-((R)—N—((S)-2-hydroxypropanoyl)-S-methylsulfonimidoyl)phenyl)-4-(trifluoromethyl)benzamide]
[5]
  IC50: < 5 nM
[6]
  IC50: < 5 nM
